{
  "source": "paper PMC3998834",
  "about": "(Biopolymers, 2014)",
  "tested_on": "BT-474 cells",
  "assay": "Antiproliferative assay",
  "type": "cell-based",
  "conditions": "Homo sapiens, BT-474, 72 h, read-out: Antiproliferative activity IC50, BT-474; SD",
  "data": [
    {"compound": "CS(=O)(=O)CCNCc1ccc(-c2ccc3ncnc(Nc4ccc(OCc5cccc(F)c5)c(Cl)c4)c3c2)o1", "note": "[lapatinib]", "values": [
      {"measurement": "IC50", "value": "25 ± 4", "unit": "nM"}
    ]}
  ]
}
